Columns and labels:
U2OS-ERα cells [1] = experiment: KRT19 mRNA real-time PCR in U2OS-ERα cells; type: cell-based, human; settings: for KRT19 gene expression, compound alone: 10 nM E2, 5 μM 2′,3′,4′-THC, 1 μM tamoxifen or raloxifene, 24 hours; for effect on E2-induced KRT19 expression: in combination with 10 nM E2, 24 hours
Protocol: (§1) (FIG. 1a) Chemical structure of 2′, 3′, 4′-THC. (FIG. 1b) U2OS cells cotransfected with ERE tk-luciferase and ERα (left panel) or ERβ (right panel). After transfection the cells were treated for 24 hours with 10 nM estradiol and 5 μM 2′, 3′, 4′-THC alone or in combination. Cells were lysed and luciferase activity was measured. RLU is relative light units. Error bars are the Mean±SEM. **P≤0.01. […] The total cellular RNA was extracted and real-time PCR for KRT19 mRNA was performed as described in Materials and Methods. […] Error bars are ±SEM. *P≤0.05, **** P≤0.0001.
FIGS. 3a-3d. […] Error bars are ±SEM.

U2OS-ERα cells [2] = experiment: NKG2E mRNA real-time PCR in U2OS-ERα cells; type: cell-based, human; settings: for NKG2E gene expression, compound alone: 10 nM E2, 5 μM 2′,3′,4′-THC, 1 μM tamoxifen or raloxifene
Protocol: as §1
(§2) (FIGS. 6a, 6b) Gene expression of (FIG. 6a) KRT73 and (FIG. 6b) NKG2E in U2OS-ERα cells treated with 10 nM estradiol, 5 μM 2′, 3′, 4′-THC, 1μM ICI alone or in combination for 24 hours. […] Error bars are ±SEM. […] After transfection, luciferase activities were measured as described in the Methods. RLU is relative light units and the data shown are mean ±SEM. (FIG. 6c). […] After transfection, luciferase activities were measured as described in the Methods. RLU is relative light units and the data shown are mean ±SEM (FIG. 6d).

MCF-7 cells = experiment: MCF-7 cell proliferation (cell counting); settings: 5 days
mouse uterus = experiment: Ovariectomized (OVX) mouse model, osmotic pump; type: in vivo; settings: OVX mice, 4 weeks
Protocol: 8 week old C57b1/6J female ovariectomized or intact mice were purchased from Jackson Laboratories, Sacramento, Calif. Mice were housed and maintained according to OLAC standard procedures in the NAF facility at UC Berkeley, Calif. All mice were fed a soy-free chow diet 2916.15 (Harlan Laboratories, Livermore, Calif.) starting one week before osmotic pump implantation or 2′, 3′, 4′-THC injection. Pumps Model 2006 were purchased from Alzet and filled with vehicle, 1 μg […], 2 mg of 2′, 3′, 4′-THC or the combination of 2′, 3′, 4′-THC and estradiol. All drugs were dissolved in sterile vehicle consisting of 50% dimethylsulfoxide (DMSO), 25% ETOH and 25% deionized water. Pumps were handled with sterile gloves and filled using a 27 gauge filling tube and 1 mL syringe. All pumps were placed in 1X PBS in 15 mL sterile conical tubes and incubated overnight at 37° . Pumps were surgically implanted into 8 week old C57b1/6J female ovariectomized mice (Jackson Laboratory, Sacramento, Calif.) posterior to the scapula and left for a duration of 4 weeks. Intact mice were injected intraperitoneal with 2′, 3′, 4′-THC every day for 3 weeks. Mice were weighed once a week for the duration of the experiment. The intraperitoneal gonadal fat was removed and weighed. Uterine tissue was collected, fluid drained and then weighed.
Tissues were dissected and immediately frozen in liquid nitrogen. Before RNA isolation, tissues were homogenized in PureZOL™ using the MP FastPrep™-24 for 40 seconds.
Uterine Tissue Slide Preparation Uterine tissue was removed and trimmed of excess adipose tissue. Tissues were fixed in formalin for 24 hours then transferred to 50% ETOH for 1 hour followed by 70% ethanol (ETOH) for another hour. After fixation tissues were sent to Histopathology Reference Laboratory, Hercules Calif. where they were paraffin embedded, sectioned and stained with hematoxylin and eosin for morphological exam
FIGS. 5a-5h. 2′, 3′, 4′-THC acts as antagonist in the mouse uterus. Uterine weights of intact (FIG. 5a) and OVX (FIG. 5b) mice. […] (FIG. 5h) Total body weight of OVX mice after 4 week treatment. Error bars are ±SEM.

U2OS-ERα cells [3] = experiment: Microarray gene regulation in U2OS-ERα cells; type: cell-based, human
Protocol: Total cellular RNA was isolated utilizing the Aurum™ RNA isolation kit (Bio-Rad, Hercules, Calif.) per the manufacturer's directions. RNA isolates were first quantified by nanodrop®, and then qualitatively evaluated by the Bio-Rad Experion™ system per the manufacturer's instructions. Biotin-labeled cRNA samples were prepared using 750 ng of total RNA. Biotin-labeled samples were evaluated by both 260/280 absorbance spectrophotometry and capillary electrophoresis. Labeled cRNA samples were hybridized overnight against Human genome HG U133A-2.0 GeneChip® arrays, (Affymetrix, Santa Clara, Calif.). All treatments were done in triplicate with the same batch of microarrays. The data was analyzed as previously described (Saunier, E. F., et al. Estrogenic plant extracts reverse weight gain and fat accumulation without causing mammary gland or uterine proliferation. PloS one 6, e28333 (2011)).
FIGS. 2a-2f2′, 3′, 4′-THC behaves as a unique coagonist on gene expression in U2OS-ERα cells. […] Expression was assessed by up regulation or down regulation of 3-fold or more and a P-value≤0.05. […] Error bars are ±SEM.

U2OS-ERα cells [4] = experiment: Real-time PCR of unique genes FGR, KCNK6, KRT73 in U2OS-ERα cells; type: cell-based, human
Protocol: Expression was assessed by up regulation or down regulation of 3-fold or more and a P-value≤0.05. […] Error bars are ±SEM.
as §2

ERα = ERα (Homo sapiens, UniProt P03372); experiment: NKG2E-TK-Luc transfection assay, U2OS cells cotransfected with ERα; type: cell-based; design: expressed in transfected cells; host or cells: U2OS; settings: 5 μM 2′,3′,4′-THC + 10 or 100 nM estrogen, 24 hours
Sequence of ERα (P03372 whole entry): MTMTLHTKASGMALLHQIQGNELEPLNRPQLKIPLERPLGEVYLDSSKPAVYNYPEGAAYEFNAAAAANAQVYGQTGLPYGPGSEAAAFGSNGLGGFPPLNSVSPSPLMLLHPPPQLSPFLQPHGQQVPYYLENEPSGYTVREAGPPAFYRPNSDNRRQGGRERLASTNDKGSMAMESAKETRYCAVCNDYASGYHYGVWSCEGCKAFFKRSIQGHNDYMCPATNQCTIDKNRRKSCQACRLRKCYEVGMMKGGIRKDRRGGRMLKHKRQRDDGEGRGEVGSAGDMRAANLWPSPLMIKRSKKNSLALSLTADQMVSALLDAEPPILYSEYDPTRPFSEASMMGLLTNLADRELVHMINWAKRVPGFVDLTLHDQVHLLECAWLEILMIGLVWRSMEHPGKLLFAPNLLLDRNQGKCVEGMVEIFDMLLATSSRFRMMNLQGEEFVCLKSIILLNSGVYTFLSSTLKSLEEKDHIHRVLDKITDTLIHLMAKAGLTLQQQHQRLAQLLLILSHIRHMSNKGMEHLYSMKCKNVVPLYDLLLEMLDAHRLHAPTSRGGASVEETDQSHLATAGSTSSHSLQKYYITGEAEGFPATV
Protocol: FIG. 7a-7e. […] (C) U2OS cells cotransfected with GRE-TK-Luc and human (h) GR and treated with 10 nM of dexamethasone (Dex) and 5 μM of 2′, 3′, 4′-THC alone or in combination for 24 hours. (D) U2OS cells cotransfected with human tyrosine aminotransferase (TATS)-luciferase reporter gene and hAR and treated with 10 nM of dihydrotestosterone (DHT) and 5 μM of 2′, 3′, 4′-THC alone or in combination for 24 hours. (E) U2OS cells cotransfected with TAT3-luciferase reporter gene and hPR-B and treated with 10 nM of progesterone (Prog) and 5 μM of 2′, 3′, 4′-THC alone or in combination for 24 hours. After transfection, luciferase activities were measured as described in the Methods. RLU is relative light units and the data shown are mean±SEM.
as §2

[5] = 1 μM ICI, 10 nM estradiol, 5 μM 2′,3′,4′-THC, 24 hours

## CC/C(=C(\c1ccccc1)c1ccc(OCCN(C)C)cc1)c1ccccc1 [tamoxifen]
U2OS-ERα cells [1]
  KRT19 gene expression, compound alone: no effect
  effect on E2-induced KRT19 expression: blocked
U2OS-ERα cells [2]; 24 hours
  NKG2E gene expression, compound alone: activated

## C[C@]12CC[C@@H]3c4ccc(O)cc4CC[C@H]3[C@@H]1CC[C@@H]2O [E2, 17β-estradiol, reference compound]
MCF-7 cells
  MCF-7 cell proliferation, compound alone: increased
U2OS-ERα cells [1]
  KRT19 gene expression, compound alone: induced
Mouse uterus
  H & E staining of uterus, compound alone: increased the number of cells lining the duct
Mouse uterus; E2 alone
  amount of gonadal adipose tissue fat: decreased
Mouse uterus; osmotic pump
  uterine size / uterine weight, compound alone: large increase
U2OS-ERα cells [3]; 10 nM E2
  genes uniquely regulated by E2 alone: 222 genes
U2OS-ERα cells [3]; 10 nM E2 or 5 μM 2′,3′,4′-THC, 3-fold or more, P≤0.05
  number of genes regulated, compound alone: 756 genes
U2OS-ERα cells [4]; E2 alone, 24 hrs
  E2 dose at which FGR activation was observed: 10 nM
  KCNK6 regulation: not regulated
  KRT73 regulation: not regulated
U2OS-ERα cells [2]; 24 hours
  NKG2E gene expression, compound alone: activated

## C[C@]12CC[C@@H]3c4ccc(O)c(O)c4CC[C@H]3[C@@H]1CC[C@@H]2O [4-hydroxyestradiol, reference compound]
ERα
  synergistic action of 2′,3′,4′-THC on NKG2E-TK-Luc with the named estrogen: synergistic action

## COc1cc2c(cc1O)CC[C@@H]1[C@@H]2CC[C@]2(C)[C@@H](O)CC[C@@H]12 [2-methoxyestradiol, reference compound]
ERα
  synergistic action of 2′,3′,4′-THC on NKG2E-TK-Luc with the named estrogen: smaller synergistic activation

## O=C(c1ccc(OCCN2CCCCC2)cc1)c1c(-c2ccc(O)cc2)sc2cc(O)ccc12 [raloxifene]
U2OS-ERα cells [1]
  KRT19 gene expression, compound alone: no effect
  effect on E2-induced KRT19 expression: blocked
U2OS-ERα cells [2]; 24 hours
  NKG2E gene expression, compound alone: activated
U2OS-ERα cells [2]; in combination with 10 nM E2, 24 hours
  effect on E2-induced NKG2E gene expression: antagonized

## C[C@]12CC[C@@H]3c4ccc(O)cc4C[C@@H](CCCCCCCCC[S+]([O-])CCCC(F)(F)C(F)(F)F)[C@H]3[C@@H]1CC[C@@H]2O (some centres unmarked) [ICI 182,780]
U2OS-ERα cells [4]; [5]
  effect on induction of KRT73 by the 2′,3′,4′-THC/E2 combination: blocked
U2OS-ERα cells [2]; [5]
  effect on induction of NKG2E by the 2′,3′,4′-THC/E2 combination: blocked

## C[C@]12CC[C@@H]3c4cc(O)c(O)cc4CC[C@H]3[C@@H]1CC[C@@H]2O [2-hydroxyestradiol, reference compound]
ERα
  synergistic action of 2′,3′,4′-THC on NKG2E-TK-Luc with the named estrogen: synergistic action
